This note sets out measurements from US10189785B2, “Heterocyclic compound” (TAKEDA PHARMACEUTICAL COMPANY LIMITED, priority 2015, dated 2019).

Test [1] has as its target T1, SPT (SPT2-expressing membrane fraction: human SPT1, human SPT2 and human ssSPTa) (Homo sapiens, UniProt O15269+O15270).
T1 construct: Full-length human SPT1, human SPT2 and human ssSPTa used; made in house; host or cells: FreeStyle 293 cells (pcDNA3.1 vectors, cotransfection); crude membrane fraction used
T1 sequence (O15269 1-473): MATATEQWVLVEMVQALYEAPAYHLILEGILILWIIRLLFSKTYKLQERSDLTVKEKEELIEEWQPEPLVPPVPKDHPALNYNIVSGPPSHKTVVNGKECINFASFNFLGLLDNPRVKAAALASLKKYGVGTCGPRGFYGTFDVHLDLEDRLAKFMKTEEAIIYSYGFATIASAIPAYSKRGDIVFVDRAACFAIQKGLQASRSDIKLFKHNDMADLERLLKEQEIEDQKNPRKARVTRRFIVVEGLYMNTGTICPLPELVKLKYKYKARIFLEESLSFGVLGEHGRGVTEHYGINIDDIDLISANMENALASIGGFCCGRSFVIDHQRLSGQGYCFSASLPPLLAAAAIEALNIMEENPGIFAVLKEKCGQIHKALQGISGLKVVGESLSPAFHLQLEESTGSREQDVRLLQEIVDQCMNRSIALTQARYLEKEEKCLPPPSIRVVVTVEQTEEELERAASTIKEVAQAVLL
T1 sequence (O15270 1-562): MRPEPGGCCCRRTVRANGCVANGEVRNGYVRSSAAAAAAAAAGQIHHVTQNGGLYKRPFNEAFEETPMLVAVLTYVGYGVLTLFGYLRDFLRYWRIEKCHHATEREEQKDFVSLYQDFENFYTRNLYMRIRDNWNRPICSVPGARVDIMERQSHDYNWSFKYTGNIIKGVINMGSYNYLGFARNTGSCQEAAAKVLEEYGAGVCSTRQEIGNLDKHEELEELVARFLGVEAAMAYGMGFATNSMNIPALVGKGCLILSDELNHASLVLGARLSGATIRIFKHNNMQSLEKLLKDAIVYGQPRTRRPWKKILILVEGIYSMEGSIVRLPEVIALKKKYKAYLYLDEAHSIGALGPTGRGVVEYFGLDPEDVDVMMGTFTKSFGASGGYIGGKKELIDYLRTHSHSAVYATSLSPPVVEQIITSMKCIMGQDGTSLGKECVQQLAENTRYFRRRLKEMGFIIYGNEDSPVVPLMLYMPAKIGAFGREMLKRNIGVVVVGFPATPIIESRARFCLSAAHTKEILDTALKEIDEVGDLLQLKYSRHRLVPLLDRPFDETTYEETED
T1 sequence (Q969W0 1-71 partner): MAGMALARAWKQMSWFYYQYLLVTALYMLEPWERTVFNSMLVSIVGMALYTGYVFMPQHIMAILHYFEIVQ
Description: SPT enzyme inhibition test (Test Example 1). The format is biochemical. As to conditions: read-out: Rate of inhibition (%) at 1 μM. In outline:
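Membrane fraction (100 μg/mL stock) of cells expressing human SPT1, SPT2 and ssSPTa was preincubated 60 min at RT with compound in 100 mM Hepes pH 8.0 containing EDTA, DTT and 0.01% BSA. Reaction ran 15 min at RT with 2 mM L-serine and 20 μM palmitoyl CoA (solution concentrations), then formic acid quench. Product measured by RapidFire mass spectrometry against a C17-sphinganine internal standard, giving % inhibition.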

Test [2] has as its system lung adenocarcinoma cell line HCC4006. Description: HCC4006 cell growth inhibition test (Test Example 2). The format is cell-based. As to conditions: Homo sapiens, 120 h; 1 μM test compound; HCC4006 cells, culture for 5 days, CellTiter-Glo; read-out: Rate of inhibition (%) at 1 μM. Summed up:
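HCC4006 cells in RPMI-1640 with 10% FBS were seeded at 250 cells/well and dosed with compound the next day. After 5 days, viability was read by CellTiter-Glo luminescence. Percent inhibition was calculated against no-compound control and cell-free blank.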

Turning to `O=C(N[C@@H]1CCN(C(=O)c2cc(Cl)c3nccnc3c2)C[C@@H]1c1ccc(F)cc1)c1ncccc1C(F)(F)F` [Example 245B, N-((3S,4R)-1-((8-Chloroquinoxalin-6-yl)carbonyl)-3-(4-fluorophenyl)piperidin-4-yl)-3-(trifluoromethyl)pyridine-2-carboxamide], the inhibition – broadly, the drop in the measured response relative to a control, in per cent – at 1 µM is 100% in test [1] and 53% in test [2].

`COc1ncc(C(=O)N2CCC(NC(=O)c3ccccc3C(F)(F)F)c3c2cnn3C)cc1Cl` (centres unmarked) [Example 85A, N-(4-((5-chloro-6-methoxypyridin-3-yl)carbonyl)-1-methyl-4,5,6,7-tetrahydro-1H-pyrazolo[4,3-b]pyridin-7-yl)-2-(trifluoromethyl)benzamide]: the values for the inhibition at 1 µM in test [1] and in test [2] were 99% and 39%, respectively.

On to `COc1cc(C(=O)N2CC[C@@H](NC(=O)c3cc(C(F)(F)F)nn3C)[C@@H](c3ccccc3)C2)cc2nccnc12` [Example 412B, N-((3S,4R)-1-((8-Methoxyquinoxalin-6-yl)carbonyl)-3-phenylpiperidin-4-yl)-1-methyl-3-(trifluoromethyl)-1H-pyrazole-5-carboxamide], for which the inhibition at 1 µM amounted to 102% in test [1] and 47% in test [2].

As to `Cc1nn(C)c(Cl)c1C(=O)N[C@@H]1CCN(C(=O)c2cc(C)c3ncc(C)n3c2)C[C@@H]1c1ccccc1` [Example 344B, 5-chloro-N-((3S,4R)-1-((3,8-dimethylimidazo[1,2-a]pyridin-6-yl)carbonyl)-3-phenylpiperidin-4-yl)-1,3-dimethyl-1H-pyrazole-4-carboxamide], the inhibition at 1 µM in test [1] came to 103%; in test [2], 51%.

Take `COc1cc(C(=O)N2CCC(NC(=O)c3ccccc3Cl)c3c2cnn3C)cnc1OC` (centres unmarked) [Example 80A, 2-chloro-N-(4-((5,6-dimethoxypyridin-3-yl)carbonyl)-1-methyl-4,5,6,7-tetrahydro-1H-pyrazolo[4,3-b]pyridin-7-yl)benzamide]: the inhibition at 1 µM in test [1] was 99%; in test [2], 44%.

For `COc1ccc(C(=O)N2CC[C@@H](NC(=O)c3ncccc3C(F)(F)F)[C@@H](c3ccccc3)C2)nc1OC` [Example 44B, N-((3S,4R)-1-((5,6-dimethoxypyridin-2-yl)carbonyl)-3-phenylpiperidin-4-yl)-3-(trifluoromethyl)pyridine-2-carboxamide], the inhibition at 1 µM was found to be 98% in test [1] and 47% in test [2].

Turning to `COc1cc(C(=O)N2CC[C@@H](NC(=O)c3ncccc3C(F)(F)F)[C@@H](c3ccc(F)cc3)C2)cnc1OC` [Example 191B, N-((3S,4R)-1-((5,6-dimethoxypyridin-3-yl)carbonyl)-3-(4-fluorophenyl)piperidin-4-yl)-3-(trifluoromethyl)pyridine-2-carboxamide], the figures for the inhibition at 1 µM in test [1] and in test [2] were 100% and 47%, respectively.

In the case of `COc1cc(C(=O)N2CC[C@@H](NC(=O)c3cc(C)nn3C)[C@@H](c3ccccc3)C2)cnc1OC` [Example 151B, N-((3S,4R)-1-((5,6-dimethoxypyridin-3-yl)carbonyl)-3-phenylpiperidin-4-yl)-1,3-dimethyl-1H-pyrazole-5-carboxamide], the inhibition at 1 µM in test [1] was determined as 99%; in test [2] it was 51%.

`O=C(N[C@@H]1CCN(C(=O)c2ccc3nccnc3c2)C[C@@H]1c1ccccc1)c1ccccc1OC(F)(F)F` [Example 57B, N-((3S,4R)-3-phenyl-1-(quinoxalin-6-ylcarbonyl)piperidin-4-yl)-2-(trifluoromethoxy) benzamide]: the inhibition at 1 µM in test [1] was 96%; in test [2] it was 54%.

In the case of `CN(C)CCOc1cc(C(F)(F)F)c(C(=O)N[C@@H]2CCN(C(=O)c3cc(Cl)c4nccnc4c3)C[C@@H]2c2ccccc2)cn1` [Example 38B, N-((3S,4R)-1-((8-chloroquinoxalin-6-yl)carbonyl)-3-phenylpiperidin-4-yl)-6-(2-(dimethylamino)ethoxy)-4-(trifluoromethyl)nicotinamide], the inhibition at 1 µM was found to be 101% in test [1] and 46% in test [2].

For `COc1ccc(C(=O)N2CCC(NC(=O)c3ccccc3Cl)c3cn(C)nc32)cc1OC` (centres unmarked) [Example 3A, 2-Chloro-N-(7-(3,4-dimethoxybenzoyl)-2-methyl-4,5,6,7-tetrahydro-2H-pyrazolo[3,4-b]pyridin-4-yl)benzamide], the inhibition at 1 µM in test [1] is 98%; in test [2] it was 41%.

For `COc1cc(C(=O)N2CC[C@@H](NC(=O)c3ccccc3OC(F)F)[C@H](c3ccc(F)cc3)C2)cnc1OC` [Example 361B, 2-(difluoromethoxy)-N-((3R,4R)-1-((5,6-dimethoxypyridin-3-yl)carbonyl)-3-(4-fluorophenyl)piperidin-4-yl)benzamide], the inhibition at 1 µM is 102% in test [1] and 45% in test [2].

Consider `O=C(N[C@@H]1CCN(C(=O)c2cc(Cl)c3nccnc3c2)C[C@@H]1c1ccccc1)c1ncccc1OC(F)F` [Example 31B, N-((3S,4R)-1-((8-Chloroquinoxalin-6-yl)carbonyl)-3-phenylpiperidin-4-yl)-3-(difluoromethoxy)pyridine-2-carboxamide], for which the values for the inhibition at 1 µM in test [1] and in test [2] were 102% and 57%, respectively.

In the case of `Cc1nn(C)c(Cl)c1C(=O)N[C@@H]1CCN(C(=O)c2cc(Cl)c3nccnc3c2)C[C@@H]1c1ccccc1` [Example 166B, 5-Chloro-N-((3S,4R)-1-((8-chloroquinoxalin-6-yl)carbonyl)-3-phenylpiperidin-4-yl)-1,3-dimethyl-1H-pyrazole-4-carboxamide], the results for the inhibition at 1 µM in test [1] and in test [2] were 101% and 53%, respectively.

Consider `Cn1nc(C(F)(F)F)cc1C(=O)N[C@@H]1CCN(C(=O)c2cc(Cl)c3nccnc3c2)C[C@@H]1c1ccc(F)cc1` [Example 96B, N-((3S,4R)-1-((8-chloroquinoxalin-6-yl)carbonyl)-3-(4-fluorophenyl)piperidin-4-yl)-1-methyl-3-(trifluoromethyl)-1H-pyrazole-5-carboxamide], for which the inhibition at 1 µM turned out to be 102% in test [1] and 49% in test [2].

Take `COc1cc(C(=O)N2CC[C@@H](NC(=O)c3cccnc3C(F)(F)F)[C@@H](c3ccccc3)C2)cnc1OC` [Example 140B, N-((3S,4R)-1-((5,6-dimethoxypyridin-3-yl)carbonyl)-3-phenylpiperidin-4-yl)-2-(trifluoromethyl)nicotinamide]: the results for the inhibition at 1 µM in test [1] and in test [2] were 101% and 49%, respectively.

Consider `COc1ncc(C(=O)N2CCC(NC(=O)c3ccccc3Cl)c3c2cnn3C)cc1Cl` (centres unmarked) [Example 84A, 2-chloro-N-(4-((5-chloro-6-methoxypyridin-3-yl)carbonyl)-1-methyl-4,5,6,7-tetrahydro-1H-pyrazolo[4,3-b]pyridin-7-yl)benzamide], for which the results for the inhibition at 1 µM in test [1] and in test [2] were 98% and 32%, respectively.

Consider `O=C(N[C@@H]1CCN(C(=O)c2cc(Cl)c3nccnc3c2)C[C@@H]1c1ccccc1)c1ccccc1OC(F)(F)F` [Example 254B, N-((3S,4R)-1-((8-chloroquinoxalin-6-yl)carbonyl)-3-phenylpiperidin-4-yl)-2-(trifluoromethoxy)benzamide], for which the inhibition at 1 µM in test [1] is 99%; in test [2], 55%.

Take `CCn1ncc2c1[C@@H](NC(=O)c1ccccc1OC(F)(F)F)CCN2C(=O)c1cnc(OC)c(OC)c1` [Example 178A, N-((7S)-4-((5,6-Dimethoxypyridin-3-yl)carbonyl)-1-ethyl-4,5,6,7-tetrahydro-1H-pyrazolo[4,3-b]pyridin-7-yl)-2-(trifluoromethoxy)benzamide]: the inhibition at 1 µM came to 101% in test [1] and 53% in test [2].
